Data on 4 compounds can be found in ChEMBL document CHEMBL4257568, “Synthesis, hepatotoxic evaluation and antipyretic activity of nitrate ester analogs of the acetaminophen derivative SCP-1” (Bioorg Med Chem Lett, 2018).

Calls of active or inactive are those of the source. The rule behind the calls is not given here.

In data set [1] the test system is Mus musculus. The experiment in a line: Antipyretic activity in LPS-induced CD1 mouse fever model assessed as effect on rectal temperature at 50 ug/kg, po administered as single dose and measured every 2 hrs up to 24 hrs. It is filed as functional, organism-based.
For data set [2], the system named is HepaRG. The experiment in a line: Hepatotoxicity in human HepaRG cells assessed as GSH depletion at 500 uM after 3 to 12 hrs by ThiolTracker Violet dye-based fluorescence assay. It is filed as toxicity, cell-based.
The target of data set [3] is Cytochrome P450 2D6 (Homo sapiens, UniProt P10635). The experiment in a line: Inhibition of human CYP2D6 expressed in baculosomes at 1 uM using MOBFC as substrate preincubated for 20 mins followed by substrate and NADP+ addition and measured after 30 mins by fluorescence assay. As to conditions: recombinant enzyme, 0.5 h. It is filed as ADME.
In data set [4] the target is Cytochrome P450 2E1 (Homo sapiens, UniProt P05181). The experiment in a line: Inhibition of human CYP2E1 expressed in baculosomes at 1 uM using EOMCC as substrate preincubated for 20 mins followed by substrate and NADP+ addition and measured after 30 mins by fluorescence assay. As to conditions: recombinant enzyme, 0.5 h. It is filed as ADME.
In data set [5] the target is Cytochrome P450 3A4 (Homo sapiens, UniProt P08684). The experiment in a line: Inhibition of human CYP3A4 expressed in baculosomes at 1 uM using BOMCC as substrate preincubated for 20 mins followed by substrate and NADP+ addition and measured after 30 mins by fluorescence assay. It is filed as ADME. As to conditions: recombinant enzyme, 0.5 h.
Data set [6] concerns HepaRG. The experiment in a line: Hepatotoxicity in human HepaRG cells assessed as GSH depletion at 1000 uM after 12 hrs by ThiolTracker Violet dye-based fluorescence assay. It is filed as toxicity, cell-based.
The subject of data set [7] is HepaRG. The experiment in a line: Hepatotoxicity in human HepaRG cells assessed as necrotic cell death at 500 uM measured over 12 hrs by LDH assay. It is filed as toxicity, cell-based.
The test system of data set [8] is HepaRG. The experiment in a line: Hepatotoxicity in human HepaRG cells assessed as GSH depletion at 500 uM measured over 12 hrs by ThiolTracker Violet dye-based fluorescence assay. It is filed as toxicity, cell-based.
Data set [9] concerns HepaRG. The experiment in a line: Hepatotoxicity in human HepaRG cells assessed as necrotic cell death at 1000 uM measured over 12 hrs by LDH assay. It is filed as toxicity, cell-based.

Chain of Cytochrome P450 2D6 (P10635 whole entry): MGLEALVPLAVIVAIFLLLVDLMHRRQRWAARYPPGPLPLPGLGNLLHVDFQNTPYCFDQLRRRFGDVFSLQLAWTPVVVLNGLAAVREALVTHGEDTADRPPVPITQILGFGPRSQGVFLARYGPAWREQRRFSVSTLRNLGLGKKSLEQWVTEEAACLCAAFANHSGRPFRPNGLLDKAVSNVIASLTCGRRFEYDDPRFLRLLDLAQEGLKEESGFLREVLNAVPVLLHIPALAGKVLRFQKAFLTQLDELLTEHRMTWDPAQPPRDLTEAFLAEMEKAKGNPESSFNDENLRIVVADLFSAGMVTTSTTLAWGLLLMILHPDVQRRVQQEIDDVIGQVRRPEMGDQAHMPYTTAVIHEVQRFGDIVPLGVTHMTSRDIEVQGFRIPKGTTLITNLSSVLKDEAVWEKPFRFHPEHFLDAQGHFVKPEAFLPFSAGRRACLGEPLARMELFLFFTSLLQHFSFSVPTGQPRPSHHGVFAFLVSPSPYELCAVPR
Chain of Cytochrome P450 2E1 (P05181 whole entry): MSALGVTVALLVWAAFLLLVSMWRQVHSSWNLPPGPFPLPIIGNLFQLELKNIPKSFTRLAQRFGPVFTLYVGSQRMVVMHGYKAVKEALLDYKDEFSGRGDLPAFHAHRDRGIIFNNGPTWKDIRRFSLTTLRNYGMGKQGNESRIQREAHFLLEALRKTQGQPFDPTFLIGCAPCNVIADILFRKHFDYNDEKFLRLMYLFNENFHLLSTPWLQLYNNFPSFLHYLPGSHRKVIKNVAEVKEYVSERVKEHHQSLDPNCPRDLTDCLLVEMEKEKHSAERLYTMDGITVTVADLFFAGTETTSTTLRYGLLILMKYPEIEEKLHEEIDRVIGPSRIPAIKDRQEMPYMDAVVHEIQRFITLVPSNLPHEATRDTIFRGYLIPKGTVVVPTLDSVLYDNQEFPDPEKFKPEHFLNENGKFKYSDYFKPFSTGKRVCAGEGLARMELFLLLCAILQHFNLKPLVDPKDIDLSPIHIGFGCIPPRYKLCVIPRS
Chain of Cytochrome P450 3A4 (P08684 whole entry): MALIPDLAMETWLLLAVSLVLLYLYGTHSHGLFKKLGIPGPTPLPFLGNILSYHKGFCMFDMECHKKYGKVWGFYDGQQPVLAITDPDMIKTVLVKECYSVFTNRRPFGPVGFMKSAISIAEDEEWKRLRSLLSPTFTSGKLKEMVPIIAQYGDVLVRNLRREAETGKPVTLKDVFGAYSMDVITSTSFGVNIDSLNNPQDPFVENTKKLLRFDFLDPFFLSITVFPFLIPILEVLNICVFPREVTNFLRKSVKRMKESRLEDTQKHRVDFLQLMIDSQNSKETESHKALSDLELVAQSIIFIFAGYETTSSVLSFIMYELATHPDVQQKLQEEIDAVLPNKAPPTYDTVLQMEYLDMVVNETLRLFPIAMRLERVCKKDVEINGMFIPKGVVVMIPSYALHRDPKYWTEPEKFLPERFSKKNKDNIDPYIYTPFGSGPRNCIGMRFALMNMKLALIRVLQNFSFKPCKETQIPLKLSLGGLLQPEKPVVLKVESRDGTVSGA

With `O=C(CN1C(=O)c2ccccc2S1(=O)=O)Nc1ccc(OC(=O)CCCO[N+](=O)[O-])cc1`, the outcome in data set [1] was Active. Besides, the Activity result in data set [2] is listed as “Non-Toxic”; in data set [6], “Non-Toxic”; in data set [7], “Toxic”; in data set [8] it was “Non-Toxic”. Besides, the “inhibition (INH)” value in data set [3], in data set [4] and in data set [5] was “Not Active” in each case.
Consider `O=C(CN1C(=O)c2ccccc2S1(=O)=O)Nc1ccc(O)cc1`, for which the Activity result in data set [2] is recorded as “Toxic”; in [9], “Toxic”; in data set [6], “Non-Toxic”; in [7], “Non-Toxic”; in data set [8], “Toxic”. Moreover, the “inhibition (INH)” value in [3], in data set [4] and in data set [5] was “Not Active” in each case.
`CC(=O)Nc1ccc(O)cc1` [ACETAMINOPHEN]: the result in data set [1] was Active. Further, the Activity result in data set [2], in [9], in data set [6], in data set [7] and in [8] was “Toxic” in each case. Moreover, the “inhibition (INH)” value in data set [4] and in [5] was “Active” in each case.
With `O=C(CN1C(=O)c2ccccc2S1(=O)=O)Nc1ccc(OC(=O)CCO[N+](=O)[O-])cc1`, the result in data set [1] was inactive. Moreover, the Activity entry in data set [2], in data set [9], in data set [6], in data set [7] and in [8] was “Non-Toxic” each time. The “inhibition (INH)” value in [3], in data set [4] and in data set [5] was “Not Active” throughout.
